≈ marks a conversion by molar mass, not a printed value.
Legend:
[1] = system: SCC-7; assay: Anticlonogenic activity against mouse SCC-7 cells assessed as inhibition of colony formation under hypoxic condition by clonogenic survival assay; format: functional
[2] = system: HT-29; assay: Antiproliferative activity against human HT-29 cells assessed as inhibition of cell growth under normoxia condition by SRB assay; format: functional, cell-based
[3] = system: SCC-7; assay: Anticlonogenic activity against mouse SCC-7 cells assessed as inhibition of colony formation under aerobic condition by clonogenic survival assay; format: functional
[4] = system: HT-29; assay: Antiproliferative activity against human HT-29 cells assessed as inhibition of cell growth under hypoxia condition by SRB assay; format: functional, cell-based
[5] = target: Vascular endothelial growth factor receptor 2 (Homo sapiens, UniProt P35968); assay: Inhibition of VEGFR-2 (unknown origin)
Vascular endothelial growth factor receptor 2, sequence (P35968 whole entry): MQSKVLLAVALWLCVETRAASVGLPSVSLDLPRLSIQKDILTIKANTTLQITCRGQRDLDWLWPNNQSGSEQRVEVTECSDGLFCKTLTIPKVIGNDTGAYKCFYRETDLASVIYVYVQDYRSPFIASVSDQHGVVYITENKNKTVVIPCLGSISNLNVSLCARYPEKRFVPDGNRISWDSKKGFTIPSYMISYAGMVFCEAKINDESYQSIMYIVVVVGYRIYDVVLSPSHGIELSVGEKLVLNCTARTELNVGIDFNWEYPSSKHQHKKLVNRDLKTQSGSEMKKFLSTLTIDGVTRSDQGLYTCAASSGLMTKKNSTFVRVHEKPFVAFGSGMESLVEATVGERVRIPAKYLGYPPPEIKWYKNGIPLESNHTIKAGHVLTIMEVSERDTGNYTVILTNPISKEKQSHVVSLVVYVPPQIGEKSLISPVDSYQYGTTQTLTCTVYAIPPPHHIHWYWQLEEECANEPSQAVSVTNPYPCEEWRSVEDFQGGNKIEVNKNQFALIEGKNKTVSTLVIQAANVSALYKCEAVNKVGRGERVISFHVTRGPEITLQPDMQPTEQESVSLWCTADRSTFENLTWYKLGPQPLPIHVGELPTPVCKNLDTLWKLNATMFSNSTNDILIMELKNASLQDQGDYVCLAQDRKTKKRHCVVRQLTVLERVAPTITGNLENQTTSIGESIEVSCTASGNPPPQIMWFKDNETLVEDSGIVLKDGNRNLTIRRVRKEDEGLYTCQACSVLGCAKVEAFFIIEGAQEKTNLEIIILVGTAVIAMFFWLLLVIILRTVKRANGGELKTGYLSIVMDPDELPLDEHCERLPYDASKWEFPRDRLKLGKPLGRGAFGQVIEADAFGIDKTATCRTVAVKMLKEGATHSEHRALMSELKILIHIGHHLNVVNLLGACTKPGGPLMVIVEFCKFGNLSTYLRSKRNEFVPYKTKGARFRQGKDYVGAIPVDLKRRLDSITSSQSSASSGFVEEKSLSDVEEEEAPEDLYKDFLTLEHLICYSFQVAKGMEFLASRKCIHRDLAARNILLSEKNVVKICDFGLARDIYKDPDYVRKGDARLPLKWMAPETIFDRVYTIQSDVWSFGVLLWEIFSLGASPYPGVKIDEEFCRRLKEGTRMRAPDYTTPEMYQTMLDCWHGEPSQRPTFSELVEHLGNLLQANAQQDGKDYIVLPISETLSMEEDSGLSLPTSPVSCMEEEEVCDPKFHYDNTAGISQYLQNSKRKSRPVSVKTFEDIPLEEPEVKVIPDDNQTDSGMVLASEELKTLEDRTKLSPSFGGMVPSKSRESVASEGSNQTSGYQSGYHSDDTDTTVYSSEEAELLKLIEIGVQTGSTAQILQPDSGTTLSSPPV

[6] = target: T1, Tyrosine-protein kinase SYK (Homo sapiens, UniProt P43405); assay: Inhibition of human SYK using 5-Fluo-Ahx-GAPDYENLQELNKK-Amid as substrate in presence of ATP by microfluidic mobility shift assay
[7] = target: T1, Tyrosine-protein kinase SYK; assay: Inhibition of SYK in human Ramos cells assessed as reduction in anti IgM-induced phosphorylation of BLNK by flow cytometry assay; format: cell-based
[8] = system: HT-29; assay: Antiproliferative activity against human HT-29 cells assessed as inhibition of cell growth by SRB assay; format: functional, cell-based
[9] = system: HT-29; assay: Potency index, ratio of tirapazamine IC50 to compound IC50 for antiproliferative activity against human HT-29 cells; format: functional
[10] = target: Cyclin-dependent kinase 2/cyclin E1 (Homo sapiens, UniProt P24941); assay: Inhibition of CDK2/cyclin E1 (unknown origin) expressed in Sf9 cells
[11] = target: T2, Tyrosine-protein kinase JAK3 (Homo sapiens, UniProt P52333); assay: Inhibition of JAK3 (unknown origin)
T2 sequence (P52333 whole entry): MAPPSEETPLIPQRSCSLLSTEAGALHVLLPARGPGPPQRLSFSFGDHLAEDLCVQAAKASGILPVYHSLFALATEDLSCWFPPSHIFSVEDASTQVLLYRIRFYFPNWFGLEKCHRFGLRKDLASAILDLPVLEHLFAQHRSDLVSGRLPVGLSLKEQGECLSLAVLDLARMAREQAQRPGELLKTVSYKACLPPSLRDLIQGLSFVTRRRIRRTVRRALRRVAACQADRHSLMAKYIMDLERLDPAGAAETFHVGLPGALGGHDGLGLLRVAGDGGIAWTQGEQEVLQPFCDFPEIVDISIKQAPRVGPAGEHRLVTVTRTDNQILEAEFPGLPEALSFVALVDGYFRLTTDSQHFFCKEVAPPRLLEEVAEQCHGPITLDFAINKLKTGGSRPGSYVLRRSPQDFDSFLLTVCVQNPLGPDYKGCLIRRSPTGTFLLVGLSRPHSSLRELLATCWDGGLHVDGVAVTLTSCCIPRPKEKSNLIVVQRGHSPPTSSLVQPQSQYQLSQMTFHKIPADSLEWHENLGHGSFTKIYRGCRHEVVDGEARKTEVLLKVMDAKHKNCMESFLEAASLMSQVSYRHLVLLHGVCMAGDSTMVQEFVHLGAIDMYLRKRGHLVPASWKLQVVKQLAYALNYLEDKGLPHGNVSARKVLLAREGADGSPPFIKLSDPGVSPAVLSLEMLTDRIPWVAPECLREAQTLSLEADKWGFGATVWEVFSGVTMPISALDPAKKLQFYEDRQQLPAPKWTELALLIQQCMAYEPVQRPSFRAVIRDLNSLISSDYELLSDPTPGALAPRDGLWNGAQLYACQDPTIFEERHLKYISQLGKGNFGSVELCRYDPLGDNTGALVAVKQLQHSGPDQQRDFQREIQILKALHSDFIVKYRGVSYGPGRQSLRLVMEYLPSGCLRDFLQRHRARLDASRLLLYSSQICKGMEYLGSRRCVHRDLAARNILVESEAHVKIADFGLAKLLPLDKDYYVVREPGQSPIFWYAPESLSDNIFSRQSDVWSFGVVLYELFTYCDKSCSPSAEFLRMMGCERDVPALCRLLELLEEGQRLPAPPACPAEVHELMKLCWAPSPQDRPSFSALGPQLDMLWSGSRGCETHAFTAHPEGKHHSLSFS

[12] = target: Tyrosine-protein kinase JAK2 (Homo sapiens, UniProt O60674); assay: Inhibition of JAK2 (unknown origin)
Tyrosine-protein kinase JAK2, sequence (O60674 whole entry): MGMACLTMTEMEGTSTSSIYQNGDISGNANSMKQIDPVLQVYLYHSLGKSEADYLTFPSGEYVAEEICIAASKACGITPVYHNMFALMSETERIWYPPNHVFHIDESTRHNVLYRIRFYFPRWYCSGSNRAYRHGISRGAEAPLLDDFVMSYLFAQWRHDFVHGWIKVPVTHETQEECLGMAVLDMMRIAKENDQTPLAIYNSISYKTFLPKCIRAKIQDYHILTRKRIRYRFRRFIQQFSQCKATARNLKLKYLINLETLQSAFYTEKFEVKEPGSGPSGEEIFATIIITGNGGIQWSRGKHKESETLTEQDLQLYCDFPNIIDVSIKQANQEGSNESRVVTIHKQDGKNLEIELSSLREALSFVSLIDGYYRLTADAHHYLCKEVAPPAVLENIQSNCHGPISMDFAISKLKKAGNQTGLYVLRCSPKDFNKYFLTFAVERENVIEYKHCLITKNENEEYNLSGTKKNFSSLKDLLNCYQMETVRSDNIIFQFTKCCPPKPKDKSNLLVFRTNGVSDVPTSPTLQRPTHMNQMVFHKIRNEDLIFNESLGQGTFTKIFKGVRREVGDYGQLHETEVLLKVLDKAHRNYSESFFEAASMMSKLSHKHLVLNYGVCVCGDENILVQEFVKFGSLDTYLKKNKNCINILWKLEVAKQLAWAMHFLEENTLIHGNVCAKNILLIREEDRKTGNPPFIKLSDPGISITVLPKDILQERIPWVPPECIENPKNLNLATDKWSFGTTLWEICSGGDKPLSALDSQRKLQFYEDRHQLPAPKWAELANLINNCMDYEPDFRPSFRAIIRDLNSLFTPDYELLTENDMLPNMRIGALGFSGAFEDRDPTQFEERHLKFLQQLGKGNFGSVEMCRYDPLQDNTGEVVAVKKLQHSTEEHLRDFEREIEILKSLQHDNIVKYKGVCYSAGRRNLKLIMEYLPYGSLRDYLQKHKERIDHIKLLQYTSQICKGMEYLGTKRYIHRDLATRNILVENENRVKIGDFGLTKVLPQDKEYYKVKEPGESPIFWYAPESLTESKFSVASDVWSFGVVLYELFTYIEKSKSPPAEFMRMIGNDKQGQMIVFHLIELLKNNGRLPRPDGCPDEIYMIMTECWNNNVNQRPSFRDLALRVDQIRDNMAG

[13] = system: HCT-116; assay: Antiproliferative activity against human HCT-116 cells assessed as inhibition of cell growth; format: functional, cell-based
[14] = system: MCF7; assay: Antiproliferative activity against human MCF7 cells assessed as inhibition of cell growth; format: functional, cell-based

## O=C(NCCNCCNc1n[n+]([O-])c2ccccc2[n+]1[O-])c1cccc2cc3ccccc3nc12
[1]
  C10: 0.18 µM
[2]
  IC50: 600 nM
[3]
  C10: 6.4 µM
[4]
  IC50: 16 nM

## Cc1cccc2nc3cccc(C(=O)NCCCN(C)CCCNc4n[n+]([O-])c5ccccc5[n+]4[O-])c3nc12
[1]
  C10: 0.18 µM
[2]
  IC50: 600 nM
[3]
  C10: 6.4 µM
[4]
  IC50: 16 nM

## CN(CCCNC(=O)c1cccc2ccc(-c3ccncc3)nc12)CCCNc1n[n+]([O-])c2ccccc2[n+]1[O-]
[1]
  C10: 0.18 µM
[2]
  IC50: 600 nM
[3]
  C10: 6.4 µM
[4]
  IC50: 16 nM

## O=C(NCCOCCNc1n[n+]([O-])c2ccccc2[n+]1[O-])c1cccc2cc3ccccc3nc12
[1]
  C10: 0.18 µM
[2]
  IC50: 600 nM
[3]
  C10: 6.4 µM
[4]
  IC50: 16 nM

## CN(CCNC(=O)c1cccc2cc3ccccc3nc12)CCNc1n[n+]([O-])c2ccccc2[n+]1[O-]
[1]
  C10: 0.18 µM
[2]
  IC50: 600 nM
[3]
  C10: 6.4 µM
[4]
  IC50: 16 nM

## CN(CCCNC(=O)c1cccc2cccnc12)CCCNc1n[n+]([O-])c2ccccc2[n+]1[O-]
[1]
  C10: 0.18 µM
[2]
  IC50: 600 nM
[3]
  C10: 6.4 µM
[4]
  IC50: 16 nM

## CN(CCCNC(=O)c1cccc2nc3ccccc3nc12)CCCNc1n[n+]([O-])c2ccccc2[n+]1[O-]
[1]
  C10: 0.18 µM
[2]
  IC50: 600 nM
[3]
  C10: 6.4 µM
[4]
  IC50: 16 nM

## Cc1ccc(Nc2ncnn3c(C)ccc23)cc1O
[5]
  IC50: 29.4 µM

## NC(=O)c1nnc(N[C@@H]2CCCC[C@@H]2N)nc1Nc1cccc2[nH]ccc12
[6]
  IC50: 0.8 nM

## Cc1cccc2cc3cccc(C(=O)NCCCN(C)CCCNc4n[n+]([O-])c5ccccc5[n+]4[O-])c3nc12
[1]
  C10: 0.18 µM
[2]
  IC50: 600 nM
[3]
  C10: 6.4 µM
[4]
  IC50: 16 nM

## CN(CCCNC(=O)c1cccc2cc3ccccc3nc12)CCCNc1n[n+]([O-])c2ccccc2[n+]1[O-]
[1]
  C10: 0.18 µM
[2]
  IC50: 600 nM
[3]
  C10: 6.4 µM
[4]
  IC50: 16 nM

## NC(=O)c1nnc(N[C@@H]2CCCC[C@@H]2N)nc1Nc1cccc2c(Cl)c[nH]c12
[6]
  IC50: 0.8 nM
[7]
  IC50: 14 nM

## NC(=O)c1nnc(N[C@@H]2CCCC[C@@H]2N)nc1Nc1cc(F)cc2cc[nH]c12
[6]
  IC50: 0.8 nM
[7]
  IC50: 14 nM

## Cc1c[nH]c2c(Nc3nc(N[C@@H]4CCCC[C@@H]4N)nnc3C(N)=O)cccc12
[6]
  IC50: 0.8 nM
[7]
  IC50: 14 nM

## Cn1ncc2c(Nc3nc(N[C@@H]4CCCC[C@@H]4N)nnc3C(N)=O)cccc21
[6]
  IC50: 0.8 nM
[7]
  IC50: 14 nM

## NC(=O)c1nnc(N[C@@H]2CCCC[C@@H]2N)nc1Nc1cccc2[nH]ncc12
[6]
  IC50: 0.8 nM
[7]
  IC50: 14 nM

## Cc1c[nH]c2c(Nc3nc(N[C@@H]4CCCC[C@@H]4N)nnc3C(N)=O)cc(F)cc12
[7]
  IC50: 14 nM

## O=C(NCCCNCCCNc1n[n+]([O-])c2ccccc2[n+]1[O-])c1cccc2cc3ccccc3nc12
[1]
  C10: 0.18 µM
[2]
  IC50: 600 nM
[3]
  C10: 6.4 µM
[4]
  IC50: 16 nM

## Nc1nc2ccccc2[n+]([O-])n1
[8]
  IC50: > 500 nM
[9]
  Ratio IC50: 2

## Oc1ccc(-n2nc(-c3cc(O)c(O)c(O)c3)c3nc(-c4ccc(Cl)cc4)nnc32)cc1
[10]
  IC50: > 20 µM

## Oc1cc(-c2nn(-c3ccc(Cl)cc3)c3nnc(-c4ccc(Cl)cc4)nc23)cc(O)c1O
[10]
  IC50: > 20 µM

## Oc1ccc(-n2nc(-c3cc(O)c(O)c(O)c3)c3nc(-c4ccccc4)nnc32)cc1
[10]
  IC50: 14.1 µM

## CC(C)C(Nc1cnnc(-c2c[nH]c3ncc(F)cc23)n1)C(=O)NCC(C)(C)C (centres undefined)
[11]
  IC50: ≤ 10 nM
[12]
  IC50: ≤ 10 nM

## COc1cc(Cc2nc(-c3ccccc3)nn3cnnc23)cc(OC)c1OC
[13]
  IC50: 0.74 µg/mL (≈ 1.96 µM)
[14]
  IC50: 0.74 µg/mL (≈ 1.96 µM)

## N#CCNc1nc2ccccc2[n+]([O-])n1
[8]
  IC50: > 300 nM
[9]
  Ratio IC50: 1.9

## Oc1ccccc1-n1nc(-c2cc(O)c(O)c(O)c2)c2nc(-c3ccc(Cl)cc3)nnc21
[10]
  IC50: > 20 µM

## CC(C)C(Nc1cnnc(-c2c[nH]c3ncc(Cl)cc23)n1)C(=O)NCC(C)(C)C (centres undefined)
[11]
  IC50: ≤ 10 nM
[12]
  IC50: ≤ 10 nM

## CC(C)(C)CNC(=O)C(C)(C)Nc1cnnc(-c2c[nH]c3ncc(F)cc23)n1
[11]
  IC50: ≤ 10 nM
[12]
  IC50: ≤ 10 nM
